Reference: PubChem BioAssay (NCI)
Where “and” joins values, the source holds several entries; their conditions need not be identical. Identical values can stand only once.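 Protocol summary: plate cells (96-well), add compound at 5 concentrations, incubate 48 h, interpolate endpoints linearly. At the GI50, growth is halved. At the TGI there is no net growth.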

Key:
Experiment in all cases: inhibition of tumour cell growth, NCI panel, 48 h
[1] = system: SNB-78 CNS
[2] = system: SNB-19 CNS
[3] = system: HT29 colon
[4] = system: EKVX NSCLC
[5] = system: M14 melanoma
[6] = system: NCI-H226 lung
[7] = system: A549 NSCLC
[8] = system: DMS 273 small cell lung
[9] = system: SR leukemia
[10] = system: NCI-H23 lung
[11] = system: OVCAR-4 ovarian

CN(C)c1ccc(/C=C/C(=O)O)cc1
TGI [1]: > 100 µM
TGI [2]: > 100 µM
TGI [3]: > 100 µM
TGI [4]: > 100 µM
TGI [5]: > 100 µM
TGI [6]: > 100 µM
TGI [7]: > 100 µM

COc1cccc(-c2nccc3c(OCc4ccccc4)c(OC)c(OC)cc23)c1
TGI [1]: > 100 µM
TGI [8]: > 100 µM
TGI [2]: > 100 µM
TGI [3]: > 100 µM
TGI [4]: > 100 µM
TGI [9]: > 100 µM
TGI [5]: > 100 µM
TGI [10]: > 100 µM
TGI [6]: > 100 µM
TGI [7]: > 100 µM

O=[N+]([O-])c1cccc(Cl)c1Oc1ccc(S(=O)(=O)/N=C(\NO)Nc2ccc(Cl)cc2)cc1
TGI [2]: 30.7 µM
TGI [3]: 30.8 µM
TGI [4]: 26.2 µM
TGI [9]: 21.1 µM
TGI [5]: 27.4 µM
TGI [10]: 33.9 µM
TGI [11]: 26.3 µM
TGI [6]: 44.4 µM
TGI [7]: 28.7 µM

C[n+]1c2ccccc2c(/C=N\NS(=O)(=O)c2ccc(Cl)cc2)c2ccccc21
TGI [1]: > 100 µM
TGI [8]: > 100 µM
TGI [2]: > 100 µM
TGI [3]: > 100 µM
TGI [4]: > 100 µM
TGI [5]: > 100 µM
TGI [10]: > 100 µM
TGI [11]: > 100 µM
TGI [6]: > 100 µM
TGI [7]: > 100 µM

Cc1ccc2c(C(=O)c3c(C)n(CCN4CCOCC4)c4ccccc34)cccc2c1
TGI [2]: > 100 µM
TGI [3]: 25.6 µM
TGI [4]: 63.3 µM
TGI [9]: > 100 µM
TGI [5]: 62 µM
TGI [10]: > 100 µM
TGI [11]: 61.1 µM
TGI [6]: 19.9 µM
TGI [7]: > 100 µM

NC(=Nc1ccccc1)c1ccccc1N
TGI [2]: > 100 µM
TGI [3]: > 100 µM
TGI [4]: > 100 µM
TGI [9]: > 100 µM
TGI [5]: > 100 µM
TGI [10]: > 100 µM
TGI [11]: > 100 µM
TGI [6]: > 100 µM
TGI [7]: > 100 µM

Cc1c(O)c(OC2OC(CO)C(O)C(O)C2O)cc2c1C=C[C@@H]1[C@@]2(C)C(=O)C[C@]2(C)[C@@H]([C@@](C)(O)C(=O)CCC(C)(C)O)[C@H](O)C[C@@]12C (some centres undefined)
TGI [2]: 54 µM
TGI [3]: 83.1 µM
TGI [4]: 91.4 µM
TGI [9]: > 100 µM
TGI [5]: 68.9 µM
TGI [10]: 37.9 µM
TGI [11]: > 100 µM
TGI [6]: 62.7 µM
TGI [7]: 83 µM

Cc1cc(N(CCC#N)CCC#N)ccc1/C=C1\SC(=S)NC1=O
TGI [2]: > 100 µM
TGI [3]: > 100 µM
TGI [4]: > 100 µM
TGI [9]: > 100 µM
TGI [5]: > 100 µM
TGI [10]: > 100 µM
TGI [11]: > 100 µM
TGI [6]: > 100 µM
TGI [7]: > 100 µM

CN(C)CC1CCC/C(=C\c2ccc(OC(=O)/C=C/c3ccc(Cl)c(Cl)c3)cc2)C1=O (centres undefined)
TGI [2]: 18.6 µM
TGI [3]: 4.68 µM
TGI [4]: 23.5 µM
TGI [9]: 3.54 µM
TGI [5]: 24.9 µM
TGI [10]: 14.4 µM
TGI [11]: > 60.3 µM
TGI [6]: 4.56 µM
TGI [7]: 24.4 µM

COc1ccc([C@]23CCN4COC[C@@H]([C@H]42)C2(CC3)OCC(C)(C)CO2)cc1OC
TGI [2]: > 100 µM
TGI [3]: > 100 µM
TGI [4]: > 100 µM
TGI [9]: > 100 µM
TGI [5]: > 100 µM
TGI [10]: > 100 µM
TGI [11]: > 100 µM
TGI [6]: > 100 µM
TGI [7]: > 100 µM

COC([C@@H](OC(=O)c1ccccc1)[C@H](OC(=O)c1ccccc1)C(O)COC(=O)c1ccccc1)n1cc(C)c(=O)[nH]c1=O (some centres undefined)
TGI [2]: > 100 µM
TGI [3]: 41.4 µM
TGI [4]: > 100 µM
TGI [9]: > 100 µM
TGI [5]: 76 µM
TGI [10]: > 100 µM
TGI [11]: 82.4 µM
TGI [6]: 74.5 µM
TGI [7]: > 100 µM

COC(=O)c1cccc(OC)c1C#Cc1c(OC)cccc1OC
TGI [2]: > 100 µM
TGI [3]: > 100 µM
TGI [4]: > 100 µM
TGI [9]: > 100 µM
TGI [5]: > 100 µM
TGI [10]: > 100 µM
TGI [11]: > 100 µM
TGI [6]: > 100 µM
TGI [7]: > 100 µM

CCN(CC)CCOC(=O)Cc1cccc2c(=O)cc(-c3ccccc3)oc12
TGI [1]: > 175 µM
TGI [8]: > 625 µM
GI50 [2]: 112 µM
TGI [2]: 62.5 µM and > 211 µM
GI50 [3]: 530 µM
GI50 [4]: 25.2 µM
TGI [4]: 62.5 µM
TGI [9]: 37.9 µM
TGI [5]: 62.5 µM
GI50 [10]: 58.7 µM
TGI [10]: 62.5 µM and > 147 µM
GI50 [11]: 18.3 µM
TGI [11]: 62.5 µM
GI50 [6]: 50.7 µM
TGI [6]: 62.5 µM and > 129 µM
GI50 [7]: 57.4 µM
TGI [7]: 62.5 µM and > 209 µM

Cc1ccc(S(=O)(=O)n2ccc(-c3ccc4ccn(S(=O)(=O)c5ccc(C)cc5)c4c3)c2)cc1
TGI [2]: > 100 µM
TGI [3]: > 100 µM
TGI [4]: > 100 µM
TGI [9]: > 100 µM
TGI [5]: > 100 µM
TGI [10]: > 100 µM
TGI [11]: > 100 µM
TGI [6]: > 100 µM
TGI [7]: > 100 µM

Cc1cc(O)cc(O)c1C(=O)O[C@]1(C)C(=O)C=C2C=C(/C=C/C(=O)O)OC=C2C1=O
TGI [2]: > 100 µM
TGI [3]: > 100 µM
TGI [4]: > 100 µM
TGI [9]: 99 µM
TGI [5]: > 100 µM
TGI [10]: > 100 µM
TGI [11]: > 100 µM
TGI [6]: > 100 µM
TGI [7]: > 100 µM

CCCCCCCCCCCCCCCCCC(=O)Nc1ccn(C2CCC(COP(=O)(O)O)O2)c(=O)n1 (centres undefined)
TGI [2]: > 100 µM
TGI [3]: > 100 µM
TGI [4]: > 100 µM
TGI [9]: > 100 µM
TGI [5]: > 100 µM
TGI [10]: > 100 µM
TGI [11]: > 100 µM
TGI [6]: > 100 µM
TGI [7]: > 100 µM

Cc1cc(N2CCCC2)c([N+](=O)[O-])cc1[N+](=O)[O-]
TGI [2]: > 100 µM
TGI [3]: > 100 µM
TGI [4]: > 100 µM
TGI [9]: > 100 µM
TGI [5]: > 100 µM
TGI [10]: > 100 µM
TGI [11]: > 100 µM
TGI [6]: > 100 µM
TGI [7]: > 100 µM

COC(=O)C1=CON2C3CC4CC(C3)CC(C4)C12C (centres undefined)
TGI [2]: > 100 µM
TGI [3]: > 100 µM
TGI [4]: > 100 µM
TGI [9]: > 100 µM
TGI [5]: > 100 µM
TGI [10]: > 100 µM
TGI [11]: > 100 µM
TGI [6]: > 100 µM
TGI [7]: > 100 µM

O=C(O)CNC(=O)c1ccc2cc(C(=O)N3CC(CCl)c4ccc([N+](=O)[O-])cc43)[nH]c2c1 (centres undefined)
TGI [2]: > 100 µM
TGI [3]: > 100 µM
TGI [4]: > 100 µM
TGI [9]: > 100 µM
TGI [5]: > 100 µM
TGI [10]: > 100 µM
TGI [11]: > 100 µM
TGI [6]: > 100 µM
TGI [7]: > 100 µM
